Converted amounts (≈) assume the structure as drawn.
Experiments:
[1] = tested on: Hep G2 (human liver cancer) cells; test: MTT cell growth inhibition, solid tumor cells; assay type: cell-based; conditions: Homo sapiens, HepG2, Hep G2, 72 h, MTT; for IC50: read-out: IC50; for IC90: read-out: IC90
Source text: (§1) Hep-2 (laryngeal carcinoma), A549 (human lung cancer), CaES-17 (esophageal cancer cell), PC-3 (prostate cancer), CNE (nasopharyngeal carcinoma cell) and SK-OV-3 (ovarian cancer cell), all of which were purchased from China Center For Type Culture Collection; RKO (human colon adenocarcinoma cell), MGC-803 (human gastric cancer cell), MG-63 (osteosarcoma), and U87-MG (malignant glioma cell), all of which were purchased from Fuxiang Bio-tech Co. Ltd., Shanghai, China; PANC-1 (pancreatic cancer), Becap37 (human breast cancer cell), Hela (human cervical cancer cell) and Hep G2 (human liver cancer cell), all of which were donated by Cancer Research Institute of Zhejiang University, China.
(§2) 6000 well-growing human solid tumor cells were obtained and inoculated into wells of a 96-well cell culture plate. The culture medium was DMEM High Glucose cell culture medium containing 10% fetal bovine serum. The plate was placed in a carbon dioxide cell incubator (5% CO2) at 37° C. and incubated for 24 hours. After added with 7-substituted fangchinoline derivatives of different concentration and mixing uniformly, the plate was placed in a carbon dioxide cell incubator (5% CO2) at 37° C. and incubated for 72 hours. Then the viable cell concentration was determined by the MTT method.

[2] = tested on: Hep-2 (laryngeal carcinoma) cells; test: MTT cell growth inhibition, solid tumor cells; assay type: cell-based; conditions: Homo sapiens, Hep-2, 72 h, MTT; for IC50: read-out: IC50; for IC90: read-out: IC90
Source text: as §1, §2

[3] = tested on: U87-MG (malignant glioma) cells; test: MTT cell growth inhibition, solid tumor cells; assay type: cell-based; conditions: Homo sapiens, U-87 MG, U87-MG, 72 h, MTT; for IC50: read-out: IC50; for IC90: read-out: IC90
Source text: as §1, §2

[4] = tested on: MG-63 (osteosarcoma) cells; test: MTT cell growth inhibition, solid tumor cells; assay type: cell-based; conditions: Homo sapiens, MG-63, 72 h, MTT; for IC50: read-out: IC50; for IC90: read-out: IC90
Source text: as §1, §2

[5] = tested on: A549 (human lung cancer) cells; test: MTT cell growth inhibition, solid tumor cells; assay type: cell-based; conditions: Homo sapiens, A549, 72 h, MTT; for IC50: read-out: IC50; for IC90: read-out: IC90
Source text: as §1, §2

[6] = tested on: RKO (human colon adenocarcinoma) cells; test: MTT cell growth inhibition, solid tumor cells; assay type: cell-based; conditions: Homo sapiens, RKO, 72 h, MTT; for IC50: read-out: IC50; for IC90: read-out: IC90
Source text: as §1, §2

tumor = test: Antitumor activity compared with fangchinoline, overall statement; assay type: cell-based; conditions: tumor type not specified
[7] = tested on: PANC-1 (pancreatic cancer) cells; test: MTT cell growth inhibition, solid tumor cells; assay type: cell-based, human; conditions: Homo sapiens, PANC-1, 72 h, MTT; for IC50: read-out: IC50; for IC90: read-out: IC90
Source text: as §1, §2

[8] = tested on: PC-3 (prostate cancer) cells; test: MTT cell growth inhibition, solid tumor cells; assay type: cell-based, human; conditions: Homo sapiens, PC-3, 72 h, MTT; for IC50: read-out: IC50; for IC90: read-out: IC90
Source text: as §1, §2

[9] = tested on: SK-OV-3 (ovarian cancer) cells; test: MTT cell growth inhibition, solid tumor cells; assay type: cell-based, human; conditions: Homo sapiens, SK-OV-3, 72 h, MTT; for IC50: read-out: IC50; for IC90: read-out: IC90
Source text: as §1, §2

[10] = tested on: CNE (nasopharyngeal carcinoma) cells; test: MTT cell growth inhibition, solid tumor cells; assay type: cell-based, human; conditions: Homo sapiens, CNE, 72 h, MTT; for IC50: read-out: IC50; for IC90: read-out: IC90
Source text: as §1, §2

[11] = tested on: CaEs-17 (esophageal cancer) cells; test: MTT cell growth inhibition, solid tumor cells; assay type: cell-based, human; conditions: Homo sapiens, CaEs17, CaEs-17, 72 h, MTT; for IC50: read-out: IC50; for IC90: read-out: IC90
Source text: as §1, §2

[12] = tested on: K562/ADR (K562adr, drug-resistant chronic myeloid leukemia) cells; test: MTT cell growth inhibition, leukemia cells; assay type: cell-based; conditions: Homo sapiens, K562/ADR, 72 h, MTT; for IC50: read-out: IC50; for IC90: read-out: IC90
Source text: (§3) Leukemia cell lines: leukemia cell lines: K562adr (drug-resistant, chronic myeloid leukemia, CML), NB4 (acute promyelocytic leukemia, AML), Kasumi-1 (acute myeloid leukemia M2 type, AML-M2), Jurkat (acute lymphoblastic leukemia, ALL), all of which were donated by Cancer Research Institute of Zhejiang University, China; and H9 (acute lymphoblastic leukemia, ALL), which was purchased from China Center for Type Culture Collection.
(§4) Reagents: The standard sample of fangchinoline (FAN) was purchased from Ci Yuan Biotechnology Co., Ltd., Shaanxi, China; and the 7-substituted fangchinoline derivatives according to the present invention.
(§5) 6000 well-growing leukemia cells were obtained and inoculated into wells of a 96-well cell culture plate. The culture medium was a RPMI-1640 cell culture medium containing 10% fetal bovine serum. After adding the 7-substituted fangchinoline derivatives of different concentrations the next day and mixing uniformly, the plate was placed in a carbon dioxide cell incubator (5% CO2) at 37° C. and incubating for 72 hours. Then the viable cell concentration was determined by the MTT method.

[13] = tested on: NB4 (acute promyelocytic leukemia) cells; test: MTT cell growth inhibition, leukemia cells; assay type: cell-based; conditions: Homo sapiens, NB4, 72 h, MTT; for IC50: read-out: IC50; for IC90: read-out: IC90
Source text: as §3, §4, §5

[14] = tested on: H9 (acute lymphoblastic leukemia) cells; test: MTT cell growth inhibition, leukemia cells; assay type: cell-based, human; conditions: Homo sapiens, H9, 72 h, MTT; for IC50: read-out: IC50; for IC90: read-out: IC90
Source text: as §3, §4, §5

[15] = tested on: Jurkat (acute lymphoblastic leukemia) cells; test: MTT cell growth inhibition, leukemia cells; assay type: cell-based, human; conditions: Homo sapiens, Jurkat, 72 h, MTT; for IC50: read-out: IC50; for IC90: read-out: IC90
Source text: as §3, §4, §5

[16] = tested on: Kasumi-1 (acute myeloid leukemia M2 type) cells; test: MTT cell growth inhibition, leukemia cells; assay type: cell-based, human; conditions: Homo sapiens, Kasumi-1, 72 h, MTT; for IC50: read-out: IC50; for IC90: read-out: IC90
Source text: as §3, §4, §5

[17] = tested on: RPMI 8226 (multiple myeloma) cells; test: MTT cell growth inhibition, multiple myeloma cells; assay type: cell-based, human; conditions: Homo sapiens, RPMI 8226, 72 h, MTT; for IC50: read-out: IC50; for IC90: read-out: IC90
Procedure: Myeloma cell lines: RPMI8226 (multiple myeloma), purchased from Fuxiang Bio-tech Co. Ltd., Shanghai, China.
as §5, with “well-growing” for “well-growing leukemia”, “incubated” for “incubating”

IC50 [1] [µg/mL]	IC90 [1] [µg/mL]	IC50 [2] [µg/mL]	IC90 [2] [µg/mL]	IC50 [3] [µg/mL]	IC90 [3] [µg/mL]	IC50 [4] [µg/mL]	IC90 [4] [µg/mL]	IC50 [5] [µg/mL]	IC90 [5] [µg/mL]	IC50 [6] [µg/mL]	IC90 [6] [µg/mL]	IC50 [7] [µg/mL]	IC90 [7] [µg/mL]	IC50 [8] [µg/mL]	IC90 [8] [µg/mL]	IC50 [9] [µg/mL]	IC90 [9] [µg/mL]	IC50 [10] [µg/mL]	SMILES	antitumor activity compared with that of fangchinoline (tumor)	also measured
3.73 (≈ 5.08 µM)	7.96 (≈ 10.8 µM)	3.18 (≈ 4.33 µM)	8.31 (≈ 11.3 µM)	2.38 (≈ 3.24 µM)	9.1 (≈ 12.4 µM)	2.6 (≈ 3.54 µM)	3.5 (≈ 4.76 µM)	2.16 (≈ 2.94 µM)	3.94 (≈ 5.36 µM)	1.66 (≈ 2.26 µM)	2.95 (≈ 4.01 µM)	2.23 (≈ 3.03 µM)	6.85 (≈ 9.32 µM)	3.8 (≈ 5.17 µM)	6.39 (≈ 8.7 µM)	12.2 (≈ 16.6 µM)	16 (≈ 21.8 µM)	2.7 (≈ 3.67 µM)	COc1ccc2cc1Oc1ccc(cc1)C[C@H]1c3cc(c(OC)cc3CCN1C)Oc1c(OCc3cccc(F)c3F)c(OC)cc3c1[C@H](C2)N(C)CC3 [BS-FC-204]	significantly superior	IC90 [10]: 5.2 µg/mL (≈ 7.08 µM); IC50 [11]: 4.6 µg/mL (≈ 6.26 µM); IC90 [11]: 14.5 µg/mL (≈ 19.8 µM); IC50 [12]: 0.38 µg/mL (≈ 0.517 µM); IC90 [12]: 1.92 µg/mL (≈ 2.61 µM); IC50 [13]: 0.39 µg/mL (≈ 0.531 µM); IC90 [13]: 2.57 µg/mL (≈ 3.5 µM); IC50 [14]: 2.2 µg/mL (≈ 2.99 µM); IC90 [14]: 3.7 µg/mL (≈ 5.04 µM); IC50 [15]: 2.23 µg/mL (≈ 3.03 µM); IC90 [15]: 3.86 µg/mL (≈ 5.25 µM); IC50 [16]: 1.29 µg/mL (≈ 1.76 µM); IC90 [16]: 3.16 µg/mL (≈ 4.3 µM); IC50 [17]: 0.42 µg/mL (≈ 0.572 µM); IC90 [17]: 1.58 µg/mL (≈ 2.15 µM)
1.94 (≈ 2.93 µM)	5.95 (≈ 8.98 µM)	3.27 (≈ 4.93 µM)	8.05 (≈ 12.1 µM)	1.99 (≈ 3 µM)	7.48 (≈ 11.3 µM)	1.6 (≈ 2.41 µM)	2.5 (≈ 3.77 µM)	2.51 (≈ 3.79 µM)	13.1 (≈ 19.7 µM)	1.64 (≈ 2.47 µM)	4.64 (≈ 7 µM)	2.87 (≈ 4.33 µM)	8.31 (≈ 12.5 µM)	3.07 (≈ 4.63 µM)	5.91 (≈ 8.92 µM)	3.77 (≈ 5.69 µM)	7.85 (≈ 11.8 µM)	2.7 (≈ 4.07 µM)	COc1ccc2cc1Oc1ccc(cc1)C[C@H]1c3cc(c(OC)cc3CCN1C)Oc1c(OCC3CC3)c(OC)cc3c1[C@H](C2)N(C)CC3 [BS-FC-208]	significantly superior	IC90 [10]: 6 µg/mL (≈ 9.05 µM); IC50 [11]: 1.79 µg/mL (≈ 2.7 µM); IC90 [11]: 6.87 µg/mL (≈ 10.4 µM); IC50 [12]: 0.28 µg/mL (≈ 0.422 µM); IC90 [12]: 2.35 µg/mL (≈ 3.55 µM); IC50 [13]: 0.48 µg/mL (≈ 0.724 µM); IC90 [13]: 2.48 µg/mL (≈ 3.74 µM); IC50 [14]: 2.01 µg/mL (≈ 3.03 µM); IC90 [14]: 4.28 µg/mL (≈ 6.46 µM); IC50 [15]: 0.75 µg/mL (≈ 1.13 µM); IC90 [15]: 1.88 µg/mL (≈ 2.84 µM); IC50 [16]: 0.97 µg/mL (≈ 1.46 µM); IC90 [16]: 4.01 µg/mL (≈ 6.05 µM); IC50 [17]: 0.13 µg/mL (≈ 0.196 µM); IC90 [17]: 0.5 µg/mL (≈ 0.754 µM)
2.12 (≈ 3.27 µM)	5.92 (≈ 9.12 µM)	3.63 (≈ 5.59 µM)	9.9 (≈ 15.3 µM)	1.85 (≈ 2.85 µM)	9.23 (≈ 14.2 µM)	2.4 (≈ 3.7 µM)	3.8 (≈ 5.86 µM)	2.19 (≈ 3.38 µM)	4.92 (≈ 7.58 µM)	1.58 (≈ 2.44 µM)	3.46 (≈ 5.33 µM)	3.46 (≈ 5.33 µM)	10.4 (≈ 16 µM)	3.24 (≈ 4.99 µM)	7.37 (≈ 11.4 µM)	5 (≈ 7.71 µM)	11.8 (≈ 18.2 µM)	2.7 (≈ 4.16 µM)	C=CCOc1c(OC)cc2c3c1Oc1cc4c(cc1OC)CCN(C)[C@H]4Cc1ccc(cc1)Oc1cc(ccc1OC)C[C@@H]3N(C)CC2 [BS-FC-213]	significantly superior	IC90 [10]: 5.6 µg/mL (≈ 8.63 µM); IC50 [11]: 1.68 µg/mL (≈ 2.59 µM); IC90 [11]: 9.16 µg/mL (≈ 14.1 µM); IC50 [12]: 0.38 µg/mL (≈ 0.586 µM); IC90 [12]: 1.72 µg/mL (≈ 2.65 µM); IC50 [13]: 0.66 µg/mL (≈ 1.02 µM); IC90 [13]: 2.32 µg/mL (≈ 3.58 µM); IC50 [14]: 2.2 µg/mL (≈ 3.39 µM); IC90 [14]: 4 µg/mL (≈ 6.17 µM); IC50 [15]: 0.64 µg/mL (≈ 0.986 µM); IC90 [15]: 3.29 µg/mL (≈ 5.07 µM); IC50 [16]: 0.93 µg/mL (≈ 1.43 µM); IC90 [16]: 3.66 µg/mL (≈ 5.64 µM); IC50 [17]: 0.12 µg/mL (≈ 0.185 µM); IC90 [17]: 0.5 µg/mL (≈ 0.771 µM)

From patent US9328122B2, “7-substituted Hanfangichin B derivative, and preparation method and use thereof” (HANGZHOU BENSHENG PHARMACEUTICAL CO., LTD., priority 2012, dated 2016)
